According to US20150190369A1, “QUERCETIN-3-GLUCOSIDE AND USES THEREOF” (priority 2012, published 2015):
Entries after “also recorded” stand apart in the source; their conditions may differ.

Legend:
PCSK9 = assay: ELISA for PCSK9 secreted into medium by MIN6 β-cells; type: cell-based, mouse; conditions: MIN6, 24 h, different concentrations of Q3G
Experimental: FIG. 15 a graph illustrating the effect of exposure to Q3G on PCSK9 secretion in MIN6 β-cells. MIN6 cells were incubated for 24 h in the presence of the specified concentration of Q3G. Media were collected and assayed by ELISA for PCSK9 content.
(§1) Mouse insulinoma MIN6 cells were cultured in a 5% CO2-95% air atmosphere at 37° C. in DMEM medium containing 10% heat-inactivated fetal bovine serum, 1 mM Na-pyruvate, 2 mM L-glutamine, 25 mM D-glucose, and 28 μM β-mercaptoethanol. Q3G at a specific final concentration was supplemented to the culture medium and incubation was conducted for a selected length of time. Media were collected, spun at 600 g to sediment suspended cells, supplemented with 0.5 volumes of 3×RIPA-PIC (1×: 50 mM Tris-HCl, pH 8, 150 mM NaCl, 1% NP-40, 0.5% Na-deoxycholate and 0.1% SDS and PIC). Cells were lysed in 1×RIPA-PIC for immuno-blotting, or in RNA extraction buffer for qRT-PCR.
The assays for PCSK9 and insulin were conducted as prescribed by kit manufacturers, using a Thermo Scientific plate reader. For example, PCSK9 levels in conditioned media were measured using the human PCSK9 ELISA kit from Circulex, as specified the manufacturer. […] After 15 min, the reaction was stopped with […] and the absorbance of the reaction mixtures measured by spectrophotometry at 450 nm. […]

ABCG1 = assay: Immunoblotting for ABCG1 in MIN6 β-cells; type: cell-based, mouse; conditions: MIN6, Q3G-treated
Experimental: The corresponding photographs of the immunoblotting results are also shown. MIN6 cells were incubated for 24 h in the presence of 16 μM Q3G. Cell lysates were analyzed by semi-quantitative immunoblotting using different antibodies successively.
as §1
Cell lysates were fractionated by SDS-PAGE and electrophoretically transferred onto a polyvinylidene fluoride membrane. […] The signal was captured on X-ray film and immunoreactive bands analyzed by densitometry on a Syngene's ChemiGenius^2XE Bio Imaging System (Cambridge, Mass.) within the dynamic range of the instrument. […]

HNF-1α = assay: Immunoblotting for HNF-1α in cells exposed to Q3G; type: cell-based; conditions: cells incubated 24 h with Q3G
Experimental: FIG. 3 is a graph illustrating hepatocyte nuclear factor la (HNF-1α) expression in cells on exposure to Q3G. Cells were incubated for 24 h in medium containing the indicated concentrations of Q3G. Cells lysates were analyzed by semi-quantitative immunoblotting for the levels of HNF-1α.
Cell lysates were fractionated by SDS-PAGE and electrophoretically transferred onto a polyvinylidene fluoride membrane. The membrane was incubated with a goat antihuman LDLR, rabbit anti-PCSK9, or rabbit anti-SREBP-2 polyclonal antibody at 1:1000, 1:1500, and 1:200 dilutions, respectively, and then with a HRP-conjugated heterospecific secondary antibody against the primary Igs at a 1:2000 dilution. It was probed for HRP reaction using the Western Lightning Chemiluminescence Reagent Plus a chemiluminescence-based revelation kit. The signal was captured on X-ray film and immunoreactive bands analyzed by densitometry on a Syngene's ChemiGenius^2XE Bio Imaging System (Cambridge, Mass.) within the dynamic range of the instrument. The membrane was stripped and reprobed with the anti-β-actin monoclonal primary antibody at 1:20,000 dilution and HRP-conjugated rabbit anti-mouse IgG secondary antibody at a 1:5000 dilution. The densitometric values of β-actin bands were using for normalization of experimental samples.

LDLR mRNA = assay: qRT-PCR for LDLR mRNA in MIN6 β-cells; type: cell-based, mouse; design: increase in LDLR mRNA: dose or concentration left out as unconfirmed; conditions: MIN6, 24 h
Experimental: as §1
For the mouse studies, the levels of specific mRNAs were quantified in a PCR-based fluorogenic assay using the Taqman technology (Holland et al., 1991). Briefly, total RNA was extracted using the RNeasy extraction kit and reverse-transcribed into cDNA using random hexameric primers and the Superscript II RNase H-Reverse Transcriptase. The cDNA was used as a template to produce PCR amplicons using FastStart TaqMan ProbeMaster-Rox master mix, primer pairs and the appropriate fluorescent probes) in the Stratagene Mx3005P thermocycler. Standard curves were established using varying amounts of pre-quantified amplicons of each transcript. The level of mRNA for the TATA-box binding protein (TBP) was used for normalization.
(§2) MIN6 β-cells were incubated for 24 h in the presence of different concentrations of Q3G. Total RNA was extracted and analyzed by qRT-PCR for the levels of mRNA for PCSK9, LDLR, ABCA1 and ABCG1.

[1] = pigs, meal supplement; cited from earlier work
recombinant human PCSK9 = recombinant human PCSK9 (Homo sapiens, UniProt Q8NBP7); assay: UV spectrometry of PCSK9-Q3G interaction; type: binding; conditions: 5 μM PCSK9 with equimolar Q3G in PBS, 5-min incubation
recombinant human PCSK9, sequence (Q8NBP7 153-692): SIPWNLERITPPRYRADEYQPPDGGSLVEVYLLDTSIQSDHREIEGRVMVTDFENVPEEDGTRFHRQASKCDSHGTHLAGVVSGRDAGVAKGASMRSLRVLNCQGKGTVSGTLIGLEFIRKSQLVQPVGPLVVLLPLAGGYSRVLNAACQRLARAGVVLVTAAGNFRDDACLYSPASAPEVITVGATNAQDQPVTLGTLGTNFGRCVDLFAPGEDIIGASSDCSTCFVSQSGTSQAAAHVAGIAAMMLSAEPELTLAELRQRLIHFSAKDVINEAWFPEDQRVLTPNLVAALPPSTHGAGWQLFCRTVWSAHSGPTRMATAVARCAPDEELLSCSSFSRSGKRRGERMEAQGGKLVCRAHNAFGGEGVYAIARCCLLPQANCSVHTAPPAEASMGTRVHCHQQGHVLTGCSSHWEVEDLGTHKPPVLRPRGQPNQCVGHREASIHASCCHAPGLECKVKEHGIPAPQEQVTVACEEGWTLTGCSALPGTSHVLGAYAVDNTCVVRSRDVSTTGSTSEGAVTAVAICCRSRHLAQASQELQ
Experimental: The data discussed herein indicate that chronic exposure of Huh7 cells to Q3G reduces PCSK9 accumulation in the culture medium by delaying its transit through the secretory pathway. The delay appears not to be caused by impaired proteolytic processing of its precursor. Quercetin is known to bind, covalently in some cases, to selected cellular proteins. […] Purified recombinant PCSK9 (5μM) was mixed with or without equimolar amount of Q3G in phosphate-buffered saline. After a 5-min incubation, the UV spectrum of the mix was taken. […] It is believed that such a binding may alter PCSK9 conformation and/or retard its navigation through the secretory pathway, and, ultimately, diminish its LDL-degrading activity.

ABCG1 mRNA = assay: qRT-PCR for ABCG1 mRNA in MIN6 β-cells; type: cell-based, mouse; conditions: MIN6, 24 h
Experimental: as §1
For the mouse studies, the levels of specific mRNAs were quantified in a PCR-based fluorogenic assay using the Taqman technology (Holland et al., 1991). Briefly, total RNA was extracted using the RNeasy extraction kit and reverse-transcribed into cDNA using random hexameric primers and the Superscript II RNase H-Reverse Transcriptase. […] Standard curves were established using varying amounts of pre-quantified amplicons of each transcript. […]
as §2

O=c1c(O[C@@H]2O[C@H](CO)[C@@H](O)[C@H](O)[C@H]2O)c(-c2ccc(O)c(O)c2)oc2cc(O)cc(O)c12 [Q3G, quercetin-3-O-β-D-glucoside]
PCSK9 in the medium (secretion) (PCSK9): paralleled that of the transcript; also recorded: stimulates | relative amount of ABCG1 protein compared with mRNA (ABCG1): in concordance with the relative amounts of mRNA | level of HNF-1α (HNF-1α): does not change | effect on LDL-receptor mRNA levels (LDLR mRNA; Q3G 8 mM and above): increased | effect on LDLR mRNA levels (LDLR mRNA; Q3G up to 4 mM): does not affect | increase in LDLR mRNA (LDLR mRNA; maximum Q3G concentration used): 1.8 fold | quercetin bioavailability versus quercetin aglycone and rutin [1]: significantly greater | interaction with PCSK9 (changes of optical density and spectral profile) (recombinant human PCSK9): suggest interaction | effect on ABCG1 mRNA levels (ABCG1 mRNA; Q3G 8 mM and above): reducing | increase of ABCG1 mRNA levels (ABCG1 mRNA; Q3G up to 4 mM): about 50%
